Consider 3 compounds from US5051519A, “Novel antiviral and antitumor terpene hydroquinones and methods of use” (Harbor Branch Oceanographic Institution, Inc., priority 1990, dated 1991).

Assay [1] relates to P388 murine leukemia cells. The assay is described as follows: Antiproliferative effect against murine P388 leukemia cells, MTT. It is filed as cell-based. To be noted: Mus musculus, 48 hour exposure. How it is done:
The crude ethanolic extract and pure compound was tested for toxicity against murine P388 leukemia cells. P388 cells obtained from J. Mayo, National Cancer Institute, Bethesda, Md., were maintained in Roswell Park Memorial Institute medium 1640 (RPMI-1640) supplemented with 10% horse serum. All cell lines were cultured in plastic tissue culture flasks and kept in an incubator at 37° C. in humidified air containing 5% CO2. Antibiotic-free stock cultures of P388 cells were subcultured to 10^5 cells/ml by dilution in fresh growth medium at 2-3 day intervals. The mean generation time of primary cultures was 14-17 hours.
To assess the antiproliferative effects of agents against P388 cells, 200 μl cultures (96-well tissue culture plates, Nunc, Denmark) were established at 1×10^6 cells/ml in drug-free medium or medium containing the crude extract at a final dilution of 1:500 of compound 1 or 2 at various concentrations. Solvent for all dilutions was methanol, which was removed from plates under vacuum. All experimental cultures were initiated in medium containing Gentamicin sulfate ([…]; Schering Corporation, Kenilworth, N.J.). After 48 hour exposures, P388 cells were enumerated using 3-[4,5-dimethylthiazol-2-yl]-2,5-diphenyltetrazolium bromide (MTT) as described below (Alley, M. C. et al. [1988] Cancer Res. 48:589).
To quantitate the effects on cell proliferation, 75 μl of warm growth medium containing 5 mg/ml MTT was added to each well and cultures were returned to the incubator for 90 minutes. To spectrophotometrically quantitate formation of reduced formazan, plates were centrifuged (900 xg, 5 minutes), culture fluids removed by aspiration, and 200 μl of acidified isopropanol (2 ml concentrated HCl/liter isopropanol) added per well. The absorbance of the resulting solutions were measured at 570 nm with a plate reader (MR700 Microplate Reader, Dynatech Laboratories, Chantilly, Va.). […] A linear relationship between P388 cell number and formazan production was found over the range of cell densities observed in these experiments.

Assay [2] has as its system MDCK cells. The assay is described as follows: Growth inhibition (cytotoxicity) of MDCK cells in the PR-8 antiviral assay, neutral red. It counts as cell-based, canine (Canis familiaris). To be noted: Canis lupus familiaris, 50% growth inhibition.
Assay [3] concerns influenza virus type A strain PR8. The assay is described as follows: Antiviral assay: cytopathic effect (CPE) reduction, influenza virus type A strain PR8 in MDCK cells, neutral red dye uptake. It counts as cell-based, Influenza A strain A/PR/8/34 (HINI).
The mark [4] stands for this setting: molar restatement of μg per 200 μl value.

≈ marks a conversion by molar mass, not a printed value.

A word on the IC50: it is the concentration that gives 50% inhibition. Lower therefore signals greater potency in that assay. With `COc1ccc(O)c2c1CC1(C)C(C)CCC3C(C)(C)CCCC31O2` (stereo not shown) [Compound 1], the IC50 in assay [1] was 13 µg/mL (≈ 37.7 µM); in assay [2] (setting [4]), 19 µM; in assay [2] (72 h, read on day 3), 6.5 µg/mL. Also, the “in vitro therapeutic index (TI)” value in assay [3] (dog, mdck) is on record as 9.
On to `COc1ccc(OC(C)=O)c2c1CC1(C)C(C)CCC3C(C)(C)CCCC31O2` (stereo not shown) [Compound 2], for which the IC50 is 23.8 µg/mL (≈ 61.6 µM) in assay [1]; 15 µM in assay [2] (setting [4]); 5 µg/mL in assay [2] (72 h, read on day 3). Further, in assay [3] (dog, mdck), the “in vitro therapeutic index (TI)” value amounted to 100.
With `C[C@H]1CC[C@H]2C(C)(C)CCC[C@]23Oc2ccc(O)cc2C[C@]13C` [aureol, reference compound], the half-inhibitory concentration (IC50) was 9 µg/mL (≈ 28.6 µM) in assay [1]; 11.6 µM in assay [2] (setting [4]); 3.65 µg/mL in assay [2] (72 h, read on day 3). Further, the “activity against influenza virus type A strain PR-8 (in words)” value in assay [3] is “strong antiviral activity”. The “in vitro therapeutic index (TI)” value in assay [3] (ratio of IC50/EC50) worked out at 116.
